Measured values published in publication PMC8453745, “Human Mass Balance and Metabolite Profiling of [^14C]‐Pamiparib, a Poly (ADP‐Ribose) Polymerase Inhibitor, in Patients With Advanced Cancer” (Clinical Pharmacology in Drug Development, 2021).
Where “and” joins values, the source holds several entries; their conditions need not be identical. Equal values may be shown once.

Assays:
PARP activity = tested on: PARP activity; design: method as in PMID 33264017; conditions: read-out: inhibition of PARP activity in cellular PARylation assay, IC50; cited from earlier work
[1] = metabolite profiling in plasma (radioprofiling, LC‐MS); format: in vivo, human
Protocol: (§1) Total radioactivity concentrations of [^14C]‐pamiparib in whole blood, plasma, urine, and feces were determined by liquid scintillation counting (LSC). Radioactivity in each sample was measured for 5 minutes using a Packard Tri‐Carb liquid scintillation counter model 2100TR, 2900TR, or 3100TR (Canberra Packard, Pangbourne, Berks, Australia) with the facilities for computing quench‐corrected disintegrations per minute. Metabolite identification in plasma, urine, and feces was conducted by LC‐MS. Quantitation of the metabolites present in plasma, urine, and feces was based on the profiles of radioactivity. The limit of quantitation for radioactivity in plasma, urine, and feces was set at 1% of each chromatographic analysis (run) and 10 counts per minute (cpm) peak height; therefore, radioactive peaks that were <1% of the total run or <10 cpm peak height were reported as not detected. In addition, pamiparib and standards were reported, regardless of the percentage of run or peak height.
For metabolite profiling in plasma, ≈1.9 to 2.8 g of each plasma sample collected 0.5, 1, 2, 6, 12, and 24 hours postdose was extracted twice with 6 mL of 0.1% formic acid in acetonitrile (ACN). Duplicate aliquots were analyzed by LSC to determine extraction recoveries, which ranged from 77.4% to 98.5%. The combined supernatants were evaporated to dryness under nitrogen and reconstituted in 2:1 reverse osmosis water:methanol (MeOH). Duplicate aliquots were analyzed by LSC to determine reconstitution recoveries, which ranged from 89.3% to 115%. The reconstituted samples were analyzed by LC‐MS, with eluent fractions collected at 10‐second intervals into 96‐well plates containing solid scintillant. Radioactivity in each well was determined using TopCount analysis, and radiochemical profiles were generated based on radioactivity counts.
(§2) Metabolic profiling was performed on plasma, urine, and feces samples using LC‐MS. Shimadzu/Nexera LC‐30AD pumps and Shimadzu/Prominence DGU‐20A5R degasser were used with Shimadzu/Prominence controller CBM‐20A. The high‐pressure liquid chromatograph (HPLC) was equipped with an autoinjector (Shimadzu/Nexera SIL‐30ACMP) set at 10°C and a fraction collector (Leap Technologies PAL HTC‐xt) set at 15°C. Thermo Fisher Scientific Q Exactive was the mass spectrometer system.

[2] = tested on: human liver microsomes (HLMs); assay: metabolic stability in human liver microsomes; format: in vitro ADME; conditions: 90‐minute incubation in HLMs without CYP inhibitors
Protocol: (§3) Metabolic stability in human liver microsomes (HLMs) and cytochrome P450 (CYP450) phenotyping assays were conducted in 3D BioOptima (Suzhou, China) using validated methodology, [13] to determine the intrinsic clearance and enzymes responsible for metabolism of pamiparib. HLMs for microsome stability was from BD Biosciences (Woburn, New York). For phenotyping, HLMs and recombinant P450 (rCYP) were from Corning (Woburn, New York). Pamiparib (1 μM) was incubated with pooled HLM (0.5 mg/mL), NADPH (1 mM), and MgCl2 (3 mM) terminated at 0, 5, 15, 30, 60, and 90 minutes. The intrinsic clearance was calculated as 0.693/(t1/2 × HLM concentration), where t1/2 is the half‐life of pamiparib determined in HLMs. For phenotyping in HLMs, pamiparib (1 μM) was incubated in the absence or presence of isoform‐selective inhibitors: 0.2 μM α‐naphthoflavone for CYP1A2, 2 μM clopidogrel for CYP2B6, 16 μM montelukast for CYP2C8, 10 μM sulfaphenazole for CYP2C9, 30 μM nootkatone for CYP2C19, 2 μM quinidine for CYP2D6, and 1 μM ketoconazole for CYP3A. The following isoform‐selective probe substrates served as positive controls: 40 μM phenacetin for CYP1A2, 100 μM bupropion for CYP2B6, 2 μM amodiaquine for CYP2C8, 5 μM diclofenac for CYP2C9, 40 μM S‐mephenytoin for CYP2C19, 5 μM dextromethorphan for CYP2D6, and 2 μM midazolam for CYP3A4. […] Pamiparib (1 μM) was also incubated with rCYP1A2, rCYP2B6, rCYP2C8, rCYP2C9, rCYP2C19, rCYP2D6, or rCYP3A4 (50 pmol/mL) for 90 minutes with NADPH and MgCl2. The following isoform‐selective probe substrates served as positive controls: 1 μM phenacetin for CYP1A2, 2 μM bupropion for CYP2B6, 2 μM amodiaquine for CYP2C8, 2 μM diclofenac for CYP2C9, 10 μM S‐mephenytoin for CYP2C19, 1 μM dextromethorphan for CYP2D6, and 20 μM midazolam for CYP3A4. Pamiparib, M1, and M2 were analyzed by LC‐MS/MS.

[3] = metabolic stability in human liver microsomes; format: in vitro ADME; conditions: human, pooled human liver microsomes, 1 μM, 0.5 mg/mL HLM, NADPH
Protocol: as §3

[4] = metabolite profiling in pooled urine (radioprofiling, LC‐MS); format: in vivo, human; conditions: pooled urine
Protocol: as §1
Each aliquot of urine (about 1 mL, weighed) was added directly to liquid scintillant prior to LSC. For metabolite profiling, urine samples collected 0‐4, 4‐8, 8‐12, 12‐24, 24‐48, 48‐72, and 72‐96 hours postdose were pooled by individual patient to generate 0‐ to 96‐hour pooled samples including 0.2% of each sample by weight. The radioactivity in each pooled sample was determined by LSC. The total amount of urine collected was factored into the recovery calculation. […] Pooled urine samples were analyzed by LC‐MS, with eluent fractions collected at 10‐second intervals into 96‐well plates containing solid scintillant. Radioactivity in each well was determined using TopCount analysis, and radiochemical profiles were generated based on radioactivity counts.
as §2

With `C[C@]12CCCN1CC1=NNC(=O)c3cc(F)cc4[nH]c2c1c34` [Pamiparib] as the molecule, how does the IC50 (PARP activity) read?
The IC50 was 200 pM.

And the “AUC0‐t, geometric mean” value ([1]; based on high‐performance liquid chromatography‐liquid scintillation counting)?
The value was 19670 ngEq·h/mL.

What about the “Cmax, geometric mean” value ([1]; based on high‐performance liquid chromatography‐liquid solid chromatography) of the same molecule?
The value was 1737 ngEq/mL.

And the “mean percent of total radioactivity exposure in plasma (AUC0‐24h)” value ([1]; plasma, mean of patients)?
Its value is 67.2% ± 10.2% and 67.2% and 67%.

And the “Percent of Total Radioactivity Concentration (AUC0‐24h)” value ([1]; plasma, patient S101)?
The value was 78.0%.

And the “Percent of Total Radioactivity Concentration (AUC0‐24h)” value ([1]; plasma, patient S102)?
Its value is 72.6%.

What about the “Percent of Total Radioactivity Concentration (AUC0‐24h)” value ([1]; plasma, patient S103) of the same molecule?
The value was 63.2%.

What about the “Percent of Total Radioactivity Concentration (AUC0‐24h)” value ([1]; plasma, patient S104) of the same molecule?
The value was 55.0%.

And the pamiparib remaining [2]?
The pamiparib remaining was 45.0%.

What about the half-life at 1 μM [3] of the same molecule?
The half-life at 1 μM was 3 h.

And the microsomal CLint at 1 μM ([3]; read-out: intrinsic clearance in HLM)?
Its microsomal CLint at 1 μM is 7.9 µL/min/mg.

What about the “dose quantified in urine” value [4] of the same molecule?
The value was 52.5 % of the dose.
